In patent US12679877B2, “NPRA agonists, compositions, and uses thereof” (PharmaIn Corporation, priority 2017, dated 2026):
Non-standard residues stand in square brackets, D forms with d. No end group written: not given here. *: point of attachment. Stearoyl = CCCCCCCCCCCCCCCCCC(=O)*; Lauroyl = CCCCCCCCCCCC(=O)*

System: natriuretic peptide receptors (NPRA or NPRB)
Assay: 2-point blood cGMP evaluation (2 and 6 hours) after 15 mg/Kg s.c., cGMP Direct Biotrak EIA
Assay type: in vivo, CD-1 mice
Conditions: for In vivo blood cGMP minus baseline, 2 hour (potency) / In vivo blood cGMP minus baseline, 6 hour (receptor depletion): 15 mg/Kg s.c. in mice (n=3), minus baseline 30 pmol/ml (n=12); for In vivo blood cGMP minus baseline, 2 hour (potency): 2 hours after dosing; for In vivo blood cGMP minus baseline, 6 hour (receptor depletion): 6 hours after dosing; for activity / potency compared to ANP, in words (2 hour data in Table 2) / apparent receptor depletion/internalization, in words (6 hour data in Table 2): 15 mg/Kg s.c. in mice, blood cGMP
Method: Various derivatives of ANP were made and screened for increase in vivo potency while limiting the apparent receptor depletion effects (or perhaps can act on another cGMP enhancing receptors) by looking at the level of blood cGMP at specific time points. […] Various derivatives were made and tested in vivo to determine the level of blood cGMP at 2 hours and 6 hours after subcutaneous administration of 15 mg/Kg in mice (which was allometrically equivalent to human dose of 1.5 mg/Kg) with the goal of finding derivatives that were therapeutically useful for increasing blood cGMP.
For 2-point cGMP evaluation of various derivatives, test samples were dissolved in water (Lonza, Wakersville, MD) before being lyophilized. Prior to use, the lyophilized test sample was dissolved in saline then 15 mg/Kg was injected subcutaneously into female CD-1 mice 6-8 weeks (n=3). Blood samples were collected at 2 and 6 hours with K2EDTA blood collection tube. The collection tube was then centrifuged at 13,000 rpm for 10 minutes at 4° C. to separate plasma. The plasma was analyzed using the cGMP Direct Biotrak EIA (GE Healthcare Life Sciences, Marlborough, MA). Note that by using allometric scaling at exponent of 0.7 [dose in other species=mice dose/((mouse weight/weight of average other species)^0.7)], the 15 mg/Kg in mice is equivalent to about 7.5 mg/Kg rat dose, about 2.5 mg/Kg dog dose, and 1.5 mg/Kg human dose. For the purpose the present disclosure, the 15 mg/Kg in mice as presented in the relevant data examples, should be understood as equivalent to about 7.5 mg/Kg rat dose, which is equivalent to about 2.5 mg/Kg dog dose, which is equivalent to about 1.5 mg/Kg human dose. Because the mice cGMP response to 15 mg/Kg dose of the newly discovered derivatives (see Table 2) was quite high, it would be prudent to use daily doses that are lower than 15 mg/Kg for mice, 7.5 mg/Kg for rat, 2.5 mg/Kg for dog, and 1.5 mg/Kg for human since any higher dose may result in too much increase in cGMP that can result in too much or even dangerous drop in blood pressure unless formulated in a very slow release delivery system. In fact based on cGMP response it was more preferable to use daily doses that are lower than […], 1.5 mg/Kg for rat, 0.5 mg/Kg for dog, and 0.3 mg/Kg for human. Additionally, the level of blood cGMP is preferably between 1.5 to 3-times of the normal baseline level. The blood or plasma cGMP normal baseline level was about 20-50 pmol/ml but could vary slightly depending on the assay kit used to measure the level.

Substance | In vivo blood cGMP minus baseline, 2 hour (potency) | In vivo blood cGMP minus baseline, 6 hour (receptor depletion) | activity / potency compared to ANP, in words (2 hour data in Table 2) | apparent receptor depletion/internalization, in words (6 hour data in Table 2)
CH3(CH2)10CO-KKGGGSLRRSSCFGGRMDRIGAQSGLGCNSFRY (Lauroyl-KKGGGSLRRSSCFGGRMDRIGAQSGLGCNSFRY; not fully specified (bridges); printed as CH3(CH2)10CO-KKGGGSLRRSSCFGGRMDRIGAQSGLGCNSFRY; cysteine pairing not given here; listed as Homo Sapiens) [SEQ ID NO. 9] | 163.62 nM | 4.78 pmol/mL | increased potency | 
CH3(CH2)10CO-KKKGGGSLRRSSCFGGRMDRIGAQSGLGCNSFRY (Lauroyl-KKKGGGSLRRSSCFGGRMDRIGAQSGLGCNSFRY; not fully specified (bridges); printed as CH3(CH2)10CO-KKKGGGSLRRSSCFGGRMDRIGAQSGLGCNSFRY; cysteine pairing not given here; listed as Homo Sapiens) [SEQ ID NO. 11] | 136.16 nM | 10.28 pmol/mL | increased potency | 
CH3(CH2)10CO-KKKKGGGSLRRSSCFGGRMDRIGAQSGLGCNSFRY (Lauroyl-KKKKGGGSLRRSSCFGGRMDRIGAQSGLGCNSFRY; not fully specified (bridges); printed as CH3(CH2)10CO-KKKKGGGSLRRSSCFGGRMDRIGAQSGLGCNSFRY; cysteine pairing not given here; listed as Homo Sapiens) [SEQ ID NO. 15] | 60.52 nM | 3.36 pmol/mL | increased potency | prevented apparent receptor depletion/internalization
CH3(CH2)16CO-KKGGGSLRRSSCFGGRMDRIGAQSGLGCNSFRY (Stearoyl-KKGGGSLRRSSCFGGRMDRIGAQSGLGCNSFRY; not fully specified (bridges); printed as CH3(CH2)16CO-KKGGGSLRRSSCFGGRMDRIGAQSGLGCNSFRY; cysteine pairing not given here; listed as Homo Sapiens) [SEQ ID NO. 10] | 183.12 nM | 14.78 pmol/mL | increased potency | 
CH3(CH2)16CO-KKKGGGSLRRSSCFGGRMDRIGAQSGLGCNSFRY (Stearoyl-KKKGGGSLRRSSCFGGRMDRIGAQSGLGCNSFRY; not fully specified (bridges); printed as CH3(CH2)16CO-KKKGGGSLRRSSCFGGRMDRIGAQSGLGCNSFRY; cysteine pairing not given here; listed as Homo Sapiens) [SEQ ID NO. 14] | 574.25 nM | 255.75 pmol/mL | increased potency | 
CH3(CH2)16CO-KKKKGGGSLRRSSCFGGRMDRIGAQSGLGCNSFRY (Stearoyl-KKKKGGGSLRRSSCFGGRMDRIGAQSGLGCNSFRY; not fully specified (bridges); printed as CH3(CH2)16CO-KKKKGGGSLRRSSCFGGRMDRIGAQSGLGCNSFRY; cysteine pairing not given here; listed as Homo Sapiens) [SEQ ID NO. 18] | 355.17 nM | 231.65 pmol/mL | increased potency | prevented apparent receptor depletion/internalization
CH3(CH2)16CO-KKKKSLRRSSCFGGRMDRIGAQSGLGCNSFRY (Stearoyl-KKKKSLRRSSCFGGRMDRIGAQSGLGCNSFRY; not fully specified (bridges); cysteine pairing not given here; listed as Homo Sapiens) [SEQ ID NO. 35] | 45.00 nM | 12.79 pmol/mL | slightly increased in activity | no significant effect on apparent receptor internalization
CH3(CH2)16CO-KKKKSLRRSSCFGGRMDRIGAQSGLGCNSFrY (Stearoyl-KKKKSLRRSSCFGGRMDRIGAQSGLGCNSF[dR]Y; not fully specified (bridges); printed as KKKKSLRRSSCFGGRMDRIGAQSGLGCNSFrY; cysteine pairing not given here; listed as Homo Sapiens) [SEQ ID NO. 36] | inactive | inactive |  | 
CH3(CH2)16CO-RRR-SGRGGGCFGGRMDRIGAQSGLGCNSFRY (Stearoyl-RRRSGRGGGCFGGRMDRIGAQSGLGCNSFRY; not fully specified (bridges); printed as CH3(CH2)16CO-RRR-SGRGGGCFGGRMDRIGAQSGLG; cysteine pairing not given here; listed as Homo Sapiens) [SEQ ID NO. 37] | 45.61 nM | 10.16 pmol/mL | limited increase in activity | 
CH3(CH2)16CO-RRR-SGRGSGCFGGRMDRIGAQSGLGCNSFRY (Stearoyl-RRRSGRGSGCFGGRMDRIGAQSGLGCNSFRY; not fully specified (bridges); printed as CH3(CH2)16CO-RRR-SGRGSGCFGGRMDRIGAQSGLG; cysteine pairing not given here; listed as Homo Sapiens) [SEQ ID NO. 38] | 33.56 nM | 7.97 pmol/mL | limited increase in activity | 
CH3(CH2)16CO-RRR-SLPRSSCFGGRMDRIGAQSGLGCNSFRY-NH2 (Stearoyl-RRRSLPRSSCFGGRMDRIGAQSGLGCNSFRY-NH2; not fully specified (bridges); printed as CH3(CH2)16CO-RRR-SLPRSSCFGGRMDRIGAQSGLG; cysteine pairing not given here; listed as Homo Sapiens) [SEQ ID NO. 39] | inactive | inactive | loss or diminished of activity | 
CH3(CH2)16CO-RRR-SLPRSSCFGGRMDRIGAQSGLGCNSFrY-NH2 (Stearoyl-RRRSLPRSSCFGGRMDRIGAQSGLGCNSF[dR]Y-NH2; not fully specified (bridges); printed as CH3(CH2)16CO-RRR-SLPRSSCFGGRMDRIGAQSGLG; cysteine pairing not given here; listed as Homo Sapiens) [SEQ ID NO. 40] | inactive | inactive | loss or diminished of activity | 
CH3(CH2)16COKKGGGGLSKGCFGLKLDRIGSMSGLGC (Stearoyl-KKGGGGLSKGCFGLKLDRIGSMSGLGC; not fully specified (bridges); printed as CH3(CH2)16COKKGGGGLSKGCFGLKLDRIGSMSGLGC; cysteine pairing not given here; listed as Homo Sapiens) [SEQ ID NO. 86] | 80.2 nM | 42.37 pmol/mL |  | 
CH3(CH2)16COKKKGGGGLSKGCFGLKLDRIGSMSGLGC (Stearoyl-KKKGGGGLSKGCFGLKLDRIGSMSGLGC; not fully specified (bridges); printed as CH3(CH2)16COKKKGGGGLSKGCFGLKLDRIGSMSGLGC; cysteine pairing not given here; listed as Homo Sapiens) [SEQ ID NO. 68] | 330.29 nM | 250.33 pmol/mL |  | 
